# “And” between values parts separate entries of the source, which are not always exact repeats. Equal values may be shown once. ± gives the expanded uncertainty stated by the source.
# Details: Calculated from knudsen effusion weight loss
smiles,measurement,setting,value
O=C1c2ccccc2-c2cccc3cccc1c23 [7H-benz[de]anthracen-7-one],vapor or sublimation pressure,"390.31 K, Crystal",0.000152 ± 8e-06 kPa and 0.000149 ± 7e-06 kPa
same,vapor or sublimation pressure,"392.23 K, Crystal",0.000179 ± 9e-06 kPa and 0.000177 ± 9e-06 kPa
same,vapor or sublimation pressure,"394.57 K, Crystal",0.000234 ± 1.2e-05 kPa and 0.000221 ± 1.1e-05 kPa
same,vapor or sublimation pressure,"396.35 K, Crystal",0.000263 ± 1.3e-05 kPa and 0.000262 ± 1.3e-05 kPa and 0.00026 ± 1.3e-05 kPa
same,vapor or sublimation pressure,"398.22 K, Crystal",0.000323 ± 1.6e-05 kPa and 0.000325 ± 1.6e-05 kPa
same,vapor or sublimation pressure,"400.41 K, Crystal",0.000394 ± 2e-05 kPa and 0.000381 ± 1.9e-05 kPa
same,vapor or sublimation pressure,"402.19 K, Crystal",0.000471 ± 2.4e-05 kPa and 0.000453 ± 2.3e-05 kPa
same,vapor or sublimation pressure,"404.34 K, Crystal",0.00057 ± 2.9e-05 kPa and 0.000564 ± 2.8e-05 kPa and 0.000565 ± 2.8e-05 kPa
same,vapor or sublimation pressure,"406.35 K, Crystal",0.000686 ± 3.4e-05 kPa and 0.000679 ± 3.4e-05 kPa and 0.00068 ± 3.4e-05 kPa
same,vapor or sublimation pressure,"408.35 K, Crystal",0.00081 ± 4.1e-05 kPa and 0.000796 ± 4e-05 kPa and 0.0008 ± 4e-05 kPa
same,vapor or sublimation pressure,"410.23 K, Crystal",0.000962 ± 4.8e-05 kPa and 0.000954 ± 4.8e-05 kPa and 0.000926 ± 4.6e-05 kPa
c1ccc2c(c1)ccc1ccccc12 [phenanthrene],vapor or sublimation pressure,"313.46 K, Crystal 2",0.000123 ± 6e-06 kPa and 0.000124 ± 6e-06 kPa
same,vapor or sublimation pressure,"315.48 K, Crystal 2",0.000151 ± 8e-06 kPa and 0.000155 ± 8e-06 kPa and 0.000156 ± 8e-06 kPa
same,vapor or sublimation pressure,"317.41 K, Crystal 2",0.000185 ± 9e-06 kPa and 0.000191 ± 1e-05 kPa and 0.000193 ± 1e-05 kPa
same,vapor or sublimation pressure,"319.47 K, Crystal 2",0.000238 ± 1.2e-05 kPa and 0.000239 ± 1.2e-05 kPa and 0.000235 ± 1.2e-05 kPa
same,vapor or sublimation pressure,"321.48 K, Crystal 2",0.000292 ± 1.5e-05 kPa and 0.000293 ± 1.5e-05 kPa and 0.000296 ± 1.5e-05 kPa
same,vapor or sublimation pressure,"323.16 K, Crystal 2",0.000343 ± 1.7e-05 kPa and 0.000352 ± 1.8e-05 kPa
same,vapor or sublimation pressure,"325.46 K, Crystal 2",0.000436 ± 2.2e-05 kPa and 0.000446 ± 2.2e-05 kPa and 0.000453 ± 2.3e-05 kPa
same,vapor or sublimation pressure,"327.47 K, Crystal 2",0.000543 ± 2.7e-05 kPa and 0.000544 ± 2.7e-05 kPa and 0.00055 ± 2.8e-05 kPa
same,vapor or sublimation pressure,"329.47 K, Crystal 2",0.00067 ± 3.4e-05 kPa and 0.000675 ± 3.4e-05 kPa and 0.000678 ± 3.4e-05 kPa
same,vapor or sublimation pressure,"331.42 K, Crystal 2",0.000814 ± 4.1e-05 kPa and 0.000825 ± 4.1e-05 kPa and 0.000834 ± 4.2e-05 kPa
same,vapor or sublimation pressure,"333.16 K, Crystal 2",0.001 ± 5e-05 kPa and 0.00101 ± 0.0001 kPa
"c1ccc(-c2cc(-c3ccccc3)cc(-c3ccccc3)c2)cc1 [1,3,5-triphenylbenzene]",vapor or sublimation pressure,"407.36 K, Crystal",0.00014 ± 7e-06 kPa and 0.000141 ± 7e-06 kPa and 0.000139 ± 7e-06 kPa
same,vapor or sublimation pressure,"409.3 K, Crystal",0.000173 ± 9e-06 kPa and 0.000166 ± 8e-06 kPa and 0.000164 ± 8e-06 kPa
same,vapor or sublimation pressure,"411.3 K, Crystal",0.000215 ± 1.1e-05 kPa and 0.00021 ± 1.1e-05 kPa and 0.000206 ± 1e-05 kPa
same,vapor or sublimation pressure,"413.23 K, Crystal",0.000251 ± 1.3e-05 kPa and 0.000256 ± 1.3e-05 kPa
same,vapor or sublimation pressure,"415.35 K, Crystal",0.000317 ± 1.6e-05 kPa and 0.000316 ± 1.6e-05 kPa
same,vapor or sublimation pressure,"416.86 K, Crystal",0.000361 ± 1.8e-05 kPa and 0.000348 ± 1.7e-05 kPa
same,vapor or sublimation pressure,"417.22 K, Crystal",0.00037 ± 1.9e-05 kPa and 0.000371 ± 1.9e-05 kPa
same,vapor or sublimation pressure,"419.24 K, Crystal",0.000454 ± 2.3e-05 kPa and 0.00047 ± 2.4e-05 kPa
same,vapor or sublimation pressure,"421.36 K, Crystal",0.000542 ± 2.7e-05 kPa and 0.000563 ± 2.8e-05 kPa and 0.000568 ± 2.8e-05 kPa
same,vapor or sublimation pressure,"423.29 K, Crystal",0.000672 ± 3.4e-05 kPa and 0.000668 ± 3.3e-05 kPa and 0.000649 ± 3.2e-05 kPa
same,vapor or sublimation pressure,"425.26 K, Crystal",0.000796 ± 4e-05 kPa and 0.000784 ± 3.9e-05 kPa
same,vapor or sublimation pressure,"427.36 K, Crystal",0.000966 ± 4.8e-05 kPa and 0.000984 ± 4.9e-05 kPa and 0.001 ± 5e-05 kPa
same,vapor or sublimation pressure,"429.29 K, Crystal",0.00117 ± 0.00012 kPa and 0.0012 ± 0.00012 kPa
O=C(O)c1ccccc1 [benzoic acid],vapor or sublimation pressure,"299.33 K, Crystal",0.000134 ± 7e-06 kPa and 0.000131 ± 7e-06 kPa
same,vapor or sublimation pressure,"301.04 K, Crystal",0.000162 ± 8e-06 kPa and 0.00016 ± 8e-06 kPa and 0.000155 ± 8e-06 kPa
same,vapor or sublimation pressure,"303.16 K, Crystal",0.000203 ± 1e-05 kPa and 0.000201 ± 1e-05 kPa and 0.00021 ± 1.1e-05 kPa
same,vapor or sublimation pressure,"305.24 K, Crystal",0.000271 ± 1.4e-05 kPa and 0.000265 ± 1.3e-05 kPa and 0.000261 ± 1.3e-05 kPa
same,vapor or sublimation pressure,"307.13 K, Crystal",0.000332 ± 1.7e-05 kPa and 0.000326 ± 1.6e-05 kPa and 0.000323 ± 1.6e-05 kPa
same,vapor or sublimation pressure,"309.25 K, Crystal",0.000414 ± 2.1e-05 kPa and 0.000408 ± 2e-05 kPa and 0.00042 ± 2.1e-05 kPa
same,vapor or sublimation pressure,"311.3 K, Crystal",0.000525 ± 2.6e-05 kPa and 0.000512 ± 2.6e-05 kPa and 0.000524 ± 2.6e-05 kPa
same,vapor or sublimation pressure,"313.2 K, Crystal",0.000643 ± 3.2e-05 kPa and 0.000622 ± 3.1e-05 kPa and 0.000647 ± 3.2e-05 kPa
same,vapor or sublimation pressure,"315.27 K, Crystal",0.000815 ± 4.1e-05 kPa and 0.000799 ± 4e-05 kPa and 0.00083 ± 4.2e-05 kPa
same,vapor or sublimation pressure,"317.32 K, Crystal",0.00105 ± 0.00011 kPa and 0.00102 ± 0.0001 kPa and 0.00101 ± 0.0001 kPa
c1ccc2cc3ccccc3cc2c1 [anthracene],vapor or sublimation pressure,"340.41 K, Crystal",0.000143 ± 7e-06 kPa and 0.000144 ± 7e-06 kPa and 0.000141 ± 7e-06 kPa
same,vapor or sublimation pressure,"342.25 K, Crystal",0.000172 ± 9e-06 kPa and 0.000173 ± 9e-06 kPa and 0.000167 ± 8e-06 kPa
same,vapor or sublimation pressure,"344.06 K, Crystal",0.000211 ± 1.1e-05 kPa and 0.000206 ± 1e-05 kPa
same,vapor or sublimation pressure,"346.4 K, Crystal",0.000258 ± 1.3e-05 kPa and 0.000262 ± 1.3e-05 kPa and 0.000263 ± 1.3e-05 kPa
same,vapor or sublimation pressure,"348.15 K, Crystal",0.000306 ± 1.5e-05 kPa and 0.000304 ± 1.5e-05 kPa and 0.000308 ± 1.5e-05 kPa
same,vapor or sublimation pressure,"350.15 K, Crystal",0.000375 ± 1.9e-05 kPa and 0.000371 ± 1.9e-05 kPa and 0.000376 ± 1.9e-05 kPa
same,vapor or sublimation pressure,"352.39 K, Crystal",0.000464 ± 2.3e-05 kPa and 0.000459 ± 2.3e-05 kPa and 0.000458 ± 2.3e-05 kPa
same,vapor or sublimation pressure,"354.06 K, Crystal",0.00055 ± 2.8e-05 kPa and 0.000548 ± 2.7e-05 kPa and 0.000554 ± 2.8e-05 kPa
same,vapor or sublimation pressure,"356.2 K, Crystal",0.000673 ± 3.4e-05 kPa and 0.000679 ± 3.4e-05 kPa and 0.000658 ± 3.3e-05 kPa
same,vapor or sublimation pressure,"358.22 K, Crystal",0.000815 ± 4.1e-05 kPa and 0.000821 ± 4.1e-05 kPa and 0.00081 ± 4.1e-05 kPa
same,vapor or sublimation pressure,"360.38 K, Crystal",0.00101 ± 0.0001 kPa and 0.00098 ± 4.9e-05 kPa

# From the NIST ThermoML archive (doi:10.1016/j.jct.2005.08.013)
